Results published in ChEMBL document CHEMBL1131369, “Isoxazolylthioamides as potential immunosuppressants a combinatorial chemistry approach” (Bioorg Med Chem Lett, 1998).

These compounds were tested against Dihydroorotate dehydrogenase (quinone), mitochondrial (Homo sapiens, UniProt Q02127) (assay: Immunosuppressive activity expressed as ability to inhibit human recombinant dihydroorotate dehydrogenase (DHODH)).
Sequence of Dihydroorotate dehydrogenase (quinone), mitochondrial (Q02127 whole entry): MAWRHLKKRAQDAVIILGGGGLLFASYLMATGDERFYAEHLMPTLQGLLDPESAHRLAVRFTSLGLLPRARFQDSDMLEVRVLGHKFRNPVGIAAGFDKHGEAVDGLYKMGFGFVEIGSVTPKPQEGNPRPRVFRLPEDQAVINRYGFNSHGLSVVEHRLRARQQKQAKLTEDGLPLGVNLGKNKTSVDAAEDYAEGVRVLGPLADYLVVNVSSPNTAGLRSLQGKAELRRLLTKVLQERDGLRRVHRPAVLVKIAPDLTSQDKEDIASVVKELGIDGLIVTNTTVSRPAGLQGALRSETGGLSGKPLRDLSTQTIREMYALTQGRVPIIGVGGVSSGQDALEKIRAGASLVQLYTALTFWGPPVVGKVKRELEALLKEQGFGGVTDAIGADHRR

Row | Compound | IC50
1 | FC(F)(F)Oc1ccc(NC(=S)c2cnoc2C2CCCCC2)cc1 | > 50 µM
2 | CCc1oncc1/C(S)=N/c1ccc(C(F)(F)F)cc1 | 3 µM
3 | CC(C)(C)c1oncc1/C(S)=N/c1ccc(C(F)(F)F)cc1 | > 50 µM
4 | CN(C)c1ccc(NC(=S)c2cnoc2C2CCCCC2)cc1 | > 50 µM
5 | N#Cc1ccc(NC(=S)c2cnoc2C2CC2)cc1 | 9.3 µM
6 | CN(C)c1ccc(NC(=S)c2cnoc2C(C)(C)C)cc1 | > 50 µM
7 | Cc1oncc1C(=S)Nc1ccc(C#N)cc1 | 35 µM
8 | CCc1oncc1/C(S)=N/c1ccc(OC(F)(F)F)cc1 | 0.7 µM
9 | CCCCCCc1oncc1/C(S)=N/c1ccc(C(F)(F)F)cc1 | > 50 µM
10 | CN(C)c1ccc(NC(=S)c2cnoc2C2CC2)cc1 | > 50 µM
11 | FC(F)(F)Oc1ccc(NC(=S)c2cnoc2C2CC2)cc1 | 0.8 µM
12 | CCc1oncc1/C(S)=N/c1ccc(N(C)C)cc1 | 40.4 µM
13 | CC(C)(C)c1oncc1/C(S)=N/c1ccc(C#N)cc1 | > 50 µM
14 | CCCCCCc1oncc1/C(S)=N/c1ccc(OC(F)(F)F)cc1 | > 50 µM
15 | Cc1oncc1C(=S)Nc1ccc(C(F)(F)F)cc1 | > 50 µM
16 | Cc1oncc1C(=S)Nc1ccc(N(C)C)cc1 | > 50 µM
17 | Cc1oncc1/C(S)=N/c1ccc(OC(F)(F)F)cc1 | 7.2 µM
18 | CC(=O)/C(C#N)=C(/S)Nc1ccc(C(F)(F)F)cc1 | 0.8 µM
19 | FC(F)(F)c1ccc(NC(=S)c2cnoc2C2CC2)cc1 | 3.2 µM
20 | CCc1oncc1C(=S)Nc1ccc(C#N)cc1 | 11 µM
21 | N#Cc1ccc(NC(=S)c2cnoc2C2CCCCC2)cc1 | > 50 µM
22 | FC(F)(F)c1ccc(NC(=S)c2cnoc2C2CCCCC2)cc1 | > 50 µM
23 | CCCCCCc1oncc1C(=S)Nc1ccc(N(C)C)cc1 | > 50 µM
24 | CC(C)(C)c1oncc1C(=S)Nc1ccc(OC(F)(F)F)cc1 | > 50 µM
25 | CCCCCCc1oncc1C(=S)Nc1ccc(C#N)cc1 | > 50 µM

Organism: Mus musculus
Test: Compound was tested in vitro for immunosuppressive activity which was measured in the mouse mixed lymphocyte reaction
Assay type: functional

Row | Compound | IC50
26 | Cc1oncc1C(=S)Nc1ccc(C(F)(F)F)cc1 | 23 µM
27 | CC(=O)/C(C#N)=C(/S)Nc1ccc(C(F)(F)F)cc1 | 11 µM
28 | C/C(O)=C(/C#N)C(=O)Nc1ccc(C(F)(F)F)cc1 | 10 µM
